# Measurements reported in PubChem BioAssay (NCI).
#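 Assay format: 96-well plates, 48-hour exposure. TGI marks complete inhibition of growth.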
# Legend:
# Test in all cases: growth of human tumour cells (NCI), 48 h
# KM20L2 colon = test system: KM20L2 colon
# HT29 colon = test system: HT29 colon
# ACHN renal = test system: ACHN renal
# DMS 273 small cell lung = test system: DMS 273 small cell lung
# MOLT-4 leukemia = test system: MOLT-4 leukemia
# NCI-H226 lung = test system: NCI-H226 lung
# SF-295 CNS = test system: SF-295 CNS
# U251 CNS = test system: U251 CNS
# UO-31 renal = test system: UO-31 renal
# SK-MEL-2 melanoma = test system: SK-MEL-2 melanoma
# UACC-62 melanoma = test system: UACC-62 melanoma
# SR leukemia = test system: SR leukemia
# HOP-92 NSCLC = test system: HOP-92 NSCLC
# NCI-H23 lung = test system: NCI-H23 lung
# M19-MEL melanoma = test system: M19-MEL melanoma
# EKVX NSCLC = test system: EKVX NSCLC
# IGROV1 ovarian = test system: IGROV1 ovarian
# 786-0 renal = test system: 786-0 renal
# XF 498 CNS = test system: XF 498 CNS
# TK-10 renal = test system: TK-10 renal
# SF-268 CNS = test system: SF-268 CNS
# CCRF-CEM leukemia = test system: CCRF-CEM leukemia
# HOP-18 NSCLC = test system: HOP-18 NSCLC
# M14 melanoma = test system: M14 melanoma
# SK-MEL-5 melanoma = test system: SK-MEL-5 melanoma
# SK-OV-3 ovarian = test system: SK-OV-3 ovarian
# HCT-15 colon = test system: HCT-15 colon
# RXF 393 renal = test system: RXF 393 renal
# SK-MEL-28 melanoma = test system: SK-MEL-28 melanoma
# HCT-116 colon = test system: HCT-116 colon
# DLD-1 colon = test system: DLD-1 colon
# HOP-62 NSCLC = test system: HOP-62 NSCLC
# OVCAR-3 ovarian = test system: OVCAR-3 ovarian
# HL-60(TB) leukemia = test system: HL-60(TB) leukemia
# OVCAR-4 ovarian = test system: OVCAR-4 ovarian
# SNB-78 CNS = test system: SNB-78 CNS
# A498 renal = test system: A498 renal
# DMS 114 small cell lung = test system: DMS 114 small cell lung
# A549 NSCLC = test system: A549 NSCLC
# SW-620 colon = test system: SW-620 colon
# SF-539 CNS = test system: SF-539 CNS
# MALME-3M melanoma = test system: MALME-3M melanoma
# SN12C renal = test system: SN12C renal
# CAKI-1 renal = test system: CAKI-1 renal
# LXFL 529 NSCLC = test system: LXFL 529 NSCLC
# RPMI-8226 leukemia = test system: RPMI-8226 leukemia
# SNB-75 CNS = test system: SNB-75 CNS
# KM12 colon = test system: KM12 colon
# LOX IMVI melanoma = test system: LOX IMVI melanoma
# UACC-257 melanoma = test system: UACC-257 melanoma
# OVCAR-5 ovarian = test system: OVCAR-5 ovarian
# HCC-2998 colon = test system: HCC-2998 colon
# NCI-H460 lung = test system: NCI-H460 lung
# NCI-H522 lung = test system: NCI-H522 lung
# OVCAR-8 ovarian = test system: OVCAR-8 ovarian
# SNB-19 CNS = test system: SNB-19 CNS
# K-562 leukemia = test system: K-562 leukemia
# COLO 205 colon = test system: COLO 205 colon
structure (smiles),measurement,setting,value
O=c1ncccn1[C@@H]1O[C@H](CO)[C@H](O)C1O (stereo partly specified),TGI,KM20L2 colon,> 100 µM
same,TGI,HT29 colon,> 100 µM
same,TGI,ACHN renal,> 100 µM
same,TGI,DMS 273 small cell lung,> 100 µM
same,TGI,MOLT-4 leukemia,> 100 µM
same,TGI,NCI-H226 lung,> 100 µM
same,TGI,SF-295 CNS,> 100 µM
same,TGI,U251 CNS,> 100 µM
same,TGI,UO-31 renal,> 100 µM
same,TGI,SK-MEL-2 melanoma,> 100 µM
same,TGI,UACC-62 melanoma,> 100 µM
same,TGI,SR leukemia,> 100 µM
same,TGI,HOP-92 NSCLC,> 100 µM
same,TGI,NCI-H23 lung,> 100 µM
same,TGI,M19-MEL melanoma,> 100 µM
same,TGI,EKVX NSCLC,> 100 µM
same,TGI,IGROV1 ovarian,> 100 µM
same,TGI,786-0 renal,> 100 µM
same,TGI,XF 498 CNS,> 100 µM
same,TGI,TK-10 renal,> 100 µM
same,TGI,SF-268 CNS,> 100 µM
same,TGI,CCRF-CEM leukemia,> 100 µM
same,TGI,HOP-18 NSCLC,> 100 µM
same,TGI,M14 melanoma,> 100 µM
same,TGI,SK-MEL-5 melanoma,> 100 µM
same,TGI,SK-OV-3 ovarian,> 100 µM
same,TGI,HCT-15 colon,> 100 µM
same,TGI,RXF 393 renal,> 100 µM
same,TGI,SK-MEL-28 melanoma,> 100 µM
same,TGI,HCT-116 colon,> 100 µM
same,TGI,DLD-1 colon,> 100 µM
same,TGI,HOP-62 NSCLC,> 100 µM
same,TGI,OVCAR-3 ovarian,> 100 µM
same,TGI,HL-60(TB) leukemia,> 100 µM
same,TGI,OVCAR-4 ovarian,> 100 µM
same,TGI,SNB-78 CNS,> 100 µM
same,TGI,A498 renal,> 100 µM
same,TGI,DMS 114 small cell lung,> 100 µM
same,TGI,A549 NSCLC,> 100 µM
same,TGI,SW-620 colon,> 100 µM
same,TGI,SF-539 CNS,> 100 µM
same,TGI,MALME-3M melanoma,> 100 µM
same,TGI,SN12C renal,> 100 µM
same,TGI,CAKI-1 renal,> 100 µM
same,TGI,LXFL 529 NSCLC,> 100 µM
same,TGI,RPMI-8226 leukemia,> 100 µM
same,TGI,SNB-75 CNS,> 100 µM
same,TGI,KM12 colon,> 100 µM
same,TGI,LOX IMVI melanoma,> 100 µM
same,TGI,UACC-257 melanoma,> 100 µM
same,TGI,OVCAR-5 ovarian,> 100 µM
same,TGI,HCC-2998 colon,> 100 µM
same,TGI,NCI-H460 lung,> 100 µM
same,TGI,NCI-H522 lung,> 100 µM
same,TGI,OVCAR-8 ovarian,> 100 µM
same,TGI,SNB-19 CNS,> 100 µM
same,TGI,K-562 leukemia,> 100 µM
same,TGI,COLO 205 colon,> 100 µM
IC[P+]1(c2ccccc2)CCCC1,TGI,KM20L2 colon,> 100 µM
same,TGI,HT29 colon,> 100 µM
same,TGI,ACHN renal,> 100 µM
same,TGI,DMS 273 small cell lung,> 100 µM
same,TGI,MOLT-4 leukemia,> 100 µM
same,TGI,NCI-H226 lung,89 µM
same,TGI,SF-295 CNS,> 100 µM
same,TGI,U251 CNS,29.4 µM
same,TGI,UO-31 renal,> 100 µM
same,TGI,SK-MEL-2 melanoma,> 100 µM
same,TGI,UACC-62 melanoma,> 100 µM
same,TGI,SR leukemia,> 100 µM
same,TGI,NCI-H23 lung,> 100 µM
same,TGI,M19-MEL melanoma,81 µM
same,TGI,EKVX NSCLC,46.1 µM
same,TGI,IGROV1 ovarian,> 100 µM
same,TGI,786-0 renal,> 100 µM
same,TGI,TK-10 renal,> 100 µM
same,TGI,CCRF-CEM leukemia,> 100 µM
same,TGI,HOP-18 NSCLC,> 100 µM
same,TGI,M14 melanoma,> 100 µM
same,TGI,SK-MEL-5 melanoma,83.1 µM
same,TGI,SK-OV-3 ovarian,> 100 µM
same,TGI,HCT-15 colon,> 100 µM
same,TGI,RXF 393 renal,> 100 µM
same,TGI,SK-MEL-28 melanoma,> 100 µM
same,TGI,HCT-116 colon,> 100 µM
same,TGI,DLD-1 colon,> 100 µM
same,TGI,HOP-62 NSCLC,> 100 µM
same,TGI,OVCAR-3 ovarian,> 100 µM
same,TGI,HL-60(TB) leukemia,> 100 µM
same,TGI,SNB-78 CNS,> 100 µM
same,TGI,A498 renal,88.6 µM
same,TGI,DMS 114 small cell lung,36.3 µM
same,TGI,A549 NSCLC,> 100 µM
same,TGI,SW-620 colon,> 100 µM
same,TGI,SF-539 CNS,> 100 µM
same,TGI,MALME-3M melanoma,> 100 µM
same,TGI,SN12C renal,60.8 µM
same,TGI,LXFL 529 NSCLC,> 100 µM
same,TGI,RPMI-8226 leukemia,> 100 µM
same,TGI,SNB-75 CNS,62.7 µM
same,TGI,KM12 colon,> 100 µM
same,TGI,LOX IMVI melanoma,> 100 µM
same,TGI,UACC-257 melanoma,> 100 µM
same,TGI,OVCAR-5 ovarian,> 100 µM
same,TGI,HCC-2998 colon,> 100 µM
same,TGI,NCI-H460 lung,76.9 µM
same,TGI,NCI-H522 lung,21.6 µM
same,TGI,OVCAR-8 ovarian,> 100 µM
same,TGI,SNB-19 CNS,> 100 µM
same,TGI,K-562 leukemia,> 100 µM
same,TGI,COLO 205 colon,31 µM
